According to US20160039936A1, “FIBROBLAST GROWTH FACTOR RECEPTOR INHIBITION FOR THE TREATMENT OF DISEASE” (UNIVERSITY OF MIAMI, priority 2011, published 2016):

Tested on: 5/6 nephrectomy rat model of CKD
Assay: 5/6 nephrectomy rat model of CKD
Format: in vivo
Conditions: PD173074 1 mg/kg/day i.p. 14 days
Source text: FGFR activity is required for the development of LVH in a rat model of CKD Since the cardiac effects of FGF23 are mediated by FGFR activation and could be blocked in vitro by the FGFR inhibitor PD173074, we tested the hypothesis that PD173074 could also attenuate LVH in the 5/6 nephrectomy rat model of CKD, which is known to develop increased FGF23 levels, severe hypertension, and LVH. We performed 5/6 nephrectomy in male Sprague Dawley rats using standard surgical techniques, and administered by intra-peritoneal injection either 1 mg/kg body weight/day of PD173074 dissolved in PBS (n=6) or vehicle alone (n=6) beginning one hour after surgery and continued daily for 14 days (FIG. 7). As a negative control, 6 rats underwent sham nephrectomy. At day 14 after surgery, we measured blood pressure, performed echocardiograms, collected blood for laboratory testing, sacrificed the animals and examined their hearts. […] Compared with vehicle, PD 173074 treatment led to decreased left ventricular mass, reduced ratio of heart weight to total body weight, decreased left ventricular wall thickness and relative wall thickness, decreased cross-sectional surface area of individual cardiac myocytes, and increased left ventricular end diastolic volume and ejection fraction (FIG. 7A-C). […]
Kidney disease was induced in Sprague Dawley rats using the 5/6 nephrectomy method (Di Marco et al., 2014). Rats were randomized to 3 groups of 6 animals each: sham nephrectomy, or 5/6 nephrectomy plus intra-peritoneal injections of vehicle (PBS) or anti-FGFR4 blocking antibody (human monoclonal, U3-11; U3Pharma) at 25 mg/kg/day every 3 days beginning one hour after surgery. High-resolution echocardiography (15 MHz) was performed at 14 days after surgery to assess LV mass, wall and chamber dimensions, and systolic and diastolic function using an HDI 5000 Ultrasound system (Philips, Best, The Netherlands). M-mode, 2D and 3D recordings were obtained under general anesthesia delivered through a nose mask while heart rate and body temperature were maintained. Blood pressure was measured in conscious rats using a computerized rat-tail cuff technique (CODA, Kent Scientific Corporation). On day 14, animals were sacrificed and the hearts were isolated and prepared for histological and serological analyses.
Short-axis heart sections were stained with hematoxylin and eosin (VWR) and used to quantify myocardial thickness by measuring the distance from the inner to the outer myocardial edges at the mid-chamber zone. Mean left ventricular free wall thickness was calculated from seven measurements of wall thickness taken at 0, 30, 60, 90, 120, 150 and 180 degrees along the hemi-circle of the short axis of the free wall. Images were taken on a Nikon SMZ 1500 microscope using 0.75× magnification.
We measured cross-sectional area of individual cardiac myocytes in paraffin-embedded short-axis sections of mouse and rat hearts. Briefly, 7 μm thick sections were deparaffinized according to our established protocols (Faul et al., 2011). To visualize cellular borders, fixed tissue was incubated with wheat germ agglutinin (WGA) conjugated to Alexa Fluor555 (Invitrogen) at 1 mg/ml in PBS containing 10 mM sodium azide. Immunofluorescence images were taken on a Leica TCS-SP5 confocal microscope with a 63× oil objective. Leica AF6000 fluorescence software was used to quantify cross-sectional area of 25 cells per field at four fields along the mid-chamber free wall based on WGA-positive staining.
Short-axis cardiac sections from mice and rats were stained with Picrosirius Red (Sigma-Aldrich) and used to quantify myocardial fibrosis. Sections were deparaffinized, counterstained with hematoxylin (VWR) and incubated in Picrosirius Red solution for 60 minutes. After washing in acidified water, sections were dehydrated in ascending ethanol series and mounted in non-aqueous mounting media. […]

Compound: CCN(CC)CCCCNc1ncc2cc(-c3cc(OC)cc(OC)c3)c(NC(=O)NC(C)(C)C)nc2n1 [PD173074]
- 5/6 nephrectomy-induced increased cardiac β-MHC and ANP and decreased MCAD mRNA: not observed
- blood pressure vs vehicle: no difference was detected
- renal function and serum FGF23 levels vs vehicle: no differences
- LVH (vs vehicle): significantly attenuated
- cross-sectional surface area of individual cardiac myocytes (vs vehicle): decreased
- left ventricular end diastolic volume and ejection fraction (vs vehicle): increased
- left ventricular mass (vs vehicle): decreased
- left ventricular wall thickness and relative wall thickness (vs vehicle): decreased
- ratio of heart weight to total body weight (vs vehicle): reduced
- hepatic expression of p-ERK protein levels (vs sham and 5/6 nephrectomized rats): decreased
